For series [1], the system named is S. aureus MB9. The experiment in a line: In vitro MIC, S. aureus MB9. It counts as cell-based. Particulars: for MIC: Staphylococcus aureus; for (M.I.C): in vivo. The source says: (§1) |In Vitro Biological Data.
Series [2] is described as follows: Blood concentration in mice after subcutaneous administration. It counts as in vivo. Particulars: mouse, sc, 50 mg/kg. The protocol: The compound of example 4 was administered to mice (5) by the subcutaneous route at a dosage of 50 mg/kg and the blood concentration determined.
For a further series, the system named is S. aureus V573. The series is described as follows: In vitro MIC, S. aureus V573 (methicillin resistant strain). Particulars: Staphylococcus aureus. It counts as cell-based. The source says:
In Vitro Biological Data.
(+ = methicillin resistant strain)

The next series deals with S. aureus Oxford. The experiment in a line: In vitro MIC, S. aureus Oxford. The format is cell-based. The note with it: Staphylococcus aureus.
Description: as §1

Series [3] concerns S. aureus Smith. The series is described as follows: M.I.C, S. aureus Smith. The format is cell-based. The note with it: Staphylococcus aureus, in vivo.
Series [4] deals with S. aureus MB9. The series is described as follows: In vivo experimental infection in mice, S. aureus MB9. Particulars: Staphylococcus aureus, sc, subcutaneous, dosed at 1 and 5 hours after infection, 5 mice/group, read-out: Total S.C. CD50. The protocol: (§2) In Vivo Biological Data.
(§3) The compound of example 4 was tested in vivo in mice
(§4) against experimental infections. The results of these
(§5) *dosed at 1 and 5 hours after infection. 5 mice/group.

A further series concerns S. pneumoniae 1761. The series is described as follows: In vitro MIC, S. pneumoniae 1761. The format is cell-based. Particulars: Streptococcus pneumoniae.
Description: as §1

Another series deals with H. influenzae NEMCl. The experiment in a line: In vitro MIC, H. influenzae NEMCl. It counts as cell-based. Particulars: Haemophilus influenzae.
Description: as §1

The next series relates to H. influenzae Q1. The experiment in a line: In vitro MIC, H. influenzae Q1. The format is cell-based. Particulars: Haemophilus influenzae.
Description: as §1

Series [5] relates to S. aureus Smith. The series is described as follows: In vivo experimental infection in mice, S. aureus Smith. Particulars: Staphylococcus aureus, sc, subcutaneous, dosed at 1 and 5 hours after infection, 5 mice/group, read-out: Total S.C. CD50. The protocol: as §2, §3, §4, §5
The next series has as its system B. catarrhalis Ravasio. The experiment in a line: In vitro MIC, B. catarrhalis Ravasio. Particulars: Moraxella catarrhalis. The format is cell-based.
Description: as §1

A further series relates to S. epidermidis PHLN20. The series is described as follows: In vitro MIC, S. epidermidis PHLN20. The format is cell-based. The note with it: Staphylococcus epidermidis.
Description: as §1

Converted amounts (≈) assume the structure as drawn.

`CC1(C)S[C@@H]2[C@H](NC(=O)/C(=N\OC3CCCCC3)c3csc(N)n3)C(=O)N2[C@H]1C(=O)O` [Example 4, Sodium 6β-[2-(2-aminothiazol-4-yl)-(Z)-2-cyclohexyloxyiminoacetamido]penicillanate]: the MIC in the series with S. aureus MB9 [1] was 0.5 µg/mL; against S. aureus V573 it was 4 µg/mL; in the series with S. aureus Oxford, 0.12 µg/mL; in the series with S. aureus Smith [3] it was 0.12 µg/mL; in the series on S. pneumoniae 1761, under 0.03 µg/mL; against H. influenzae NEMCl it was 0.5 µg/mL. Further, the figures for the MIC against H. influenzae Q1, with B. catarrhalis Ravasio and against S. epidermidis PHLN20 were 0.12 µg/mL, 0.25 µg/mL and 0.25 µg/mL, respectively. In addition, the (M.I.C) in the series on S. aureus MB9 [1] was 0.5 µg/mL. In addition, the AUC (as a rule, the area under the concentration-time curve, a measure of exposure) in series [2] was 9520 ng·h/mL. The same molecule had a concentration at 5 min in series [2] (5 mins) of 31000 ng/mL. The same molecule yielded a concentration at 10 min in series [2] (10 mins) of 21800 ng/mL. Further, in series [2] (20 mins), the concentration at 20 min came to 14300 ng/mL. The molecule also had a concentration at 0.5 h in series [2] (30 mins) of 7700 ng/mL. The molecule further gave a concentration at 1 h in series [2] (60 mins) of 900 ng/mL. In [2] (120 mins), this molecule gave a concentration at 2 h of under 90 ng/mL. Also, the ED50 amounted to 4 mg/kg in the series on S. aureus MB9 [4] and 1.5 mg/kg with S. aureus Smith [5].

Take `Cc1onc(-c2c(F)cccc2Cl)c1C(=O)N[C@@H]1C(=O)N2[C@@H]1SC(C)(C)[C@@H]2C(=O)O` [flucloxacillin, reference compound]: the MIC against S. aureus MB9 [1] came out at 0.5 µg/mL (≈ 1.1 µM); against S. aureus V573 it was 32 µg/mL (≈ 70.5 µM); against S. aureus Oxford, 0.25 µg/mL (≈ 0.551 µM); with S. aureus Smith [3], 0.25 µg/mL (≈ 0.551 µM); in the series on S. pneumoniae 1761, 0.25 µg/mL (≈ 0.551 µM); against H. influenzae NEMCl, 16 µg/mL (≈ 35.3 µM). The MIC is 4 µg/mL (≈ 8.81 µM) in the series with H. influenzae Q1, 16 µg/mL (≈ 35.3 µM) with B. catarrhalis Ravasio and 0.25 µg/mL (≈ 0.551 µM) with S. epidermidis PHLN20. Also, the (M.I.C) in the series with S. aureus MB9 [1] is 0.5 µg/mL. Also, the ED50 was 17 mg/kg in the series on S. aureus MB9 [4] and 6 mg/kg in the series with S. aureus Smith [5].

For the origin of these results see patent US4816452A, “Aminothiazole substituted penicillins and antibacterial compositions thereof” (Beecham Group P.L.C., priority 1985, dated 1989).
